10 compounds from patent publication US20260028326A1, “COMPOUND BASED ON ISOINDOLINE-SUBSTITUTED GLUTARIMIDE BACKBONE AND USE THEREOF” (GLUETACS THERAPEUTICS (SHANGHAI) CO., LTD., priority 2022, published 2026) can be followed below.

A short description of data set [1]: Pharmacokinetic study, oral administration, mouse plasma. It is filed as in vivo, mice. The method, then: The experimental animals used can be those commonly used in pharmacokinetic experiments, e.g., adult and healthy rodents (e.g., mice, rats (such as Sprague-Dawley (SD) rats), guinea pigs) or non-rodents (rabbits, dogs, and monkeys). In the present disclosure, mice were used as the experimental animals.
The experimental animals were divided into two groups: a control group (for collecting blank plasma) and an orally administered group (dosed at 10 mg/kg or 30 mg/kg). Blood samples were collected at predetermined sampling time points after administration, such as 0.25 h, 0.5 h, 1 h, 2 h, 4 h, 8 h, and 24 h post-dosing. Blank plasma was collected from the control group.
Plasma samples were preprocessed before analysis: 10 μL of 50% acetonitrile and 200 μL of internal standard solution (containing 50 ng/mL dexamethasone in acetonitrile) were added to 10 μL of plasma samples. For the blank control group, the same volume of acetonitrile was added instead of the internal standard. The processed samples were vortexed, centrifuged, and the supernatant was taken for LC-MS/MS injection analysis.
After preparing standard curves and quality control (QC) samples, the concentrations of the compounds in the plasma samples were determined by LC-MS/MS analysis. Based on the plasma concentration data obtained from LC-MS/MS analysis, the pharmacokinetic parameters of the test compounds were calculated using the non-compartmental model in the pharmacokinetic calculation software WinNonlin v8.1.

Data set [2] has as its target human Cereblon WT GST-tagged protein (Homo sapiens (Human), UniProt Q96SW2). Put plainly: CRBN-binding affinity, HTRF (CEREBLON BINDING kit). The gist of the method:
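HTRF competition readout: compounds compete with a thalidomide-Re conjugate for GST-tagged wild-type human CRBN detected via Eu-labelled anti-GST antibody. Inhibition rate derived relative to protein-free blank wells.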

For the next data set, the target named is IKZF1 protein (Homo sapiens (Human), UniProt Q13422+Q96SW2). Put plainly: Western-blot assay of substrate protein degradation in hPBMC, IKZF1. It is filed as cell-based. To be noted: hPBMC cells, compound 500 nM, 24 hours, Western blot.
The target in the next data set is IKZF3 protein (Homo sapiens (Human), UniProt Q96SW2+Q9UKT9). The experiment in a line: Western-blot assay of substrate protein degradation in hPBMC, IKZF3. It is filed as cell-based. The following applies: hPBMC cells, compound 500 nM, 24 hours, Western blot.
In a further data set the target is GSPT1 protein (Homo sapiens (Human), UniProt P15170+Q96SW2). The experiment in a line: Western-blot assay of substrate protein degradation in hPBMC, GSPT1. It is filed as cell-based. The following applies: hPBMC cells, compound 500 nM, 24 hours, Western blot. A general note: In western blotting, separated proteins are transferred to a membrane and probed.
The subject of another data set is Mino cells. Put plainly: Tumor cell proliferation IC50 (CCK-8), Mino.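 Note: cell viability assessed with CCK-8 reagent after compound exposure, IC50 derived from plotted growth inhibition curves.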 The following applies: Homo sapiens, 72 h, read-out: IC50 for inhibiting the proliferation of tumor cells, Mino.
Another data set concerns MM.1S cells. The experiment in a line: Tumor cell proliferation IC50 (CCK-8), MM.1S.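 Note: viability of cultured cells read by CCK-8 reagent after compound exposure, growth inhibition curves fitted to derive IC50.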 The following applies: Homo sapiens, MM1.S, 72 h, read-out: IC50 for inhibiting the proliferation of tumor cells, MM.1S.
The test system of the next data set is MV-4-11 cells. The experiment in a line: Tumor cell proliferation IC50 (CCK-8), MV-4-11. The following applies: Homo sapiens, MV4-11, 96 h, read-out: IC50 for inhibiting the proliferation of tumor cells, MV-4-11.
The test system of another data set is CCRF-CEM cells. Put plainly: Tumor cell proliferation IC50 (CCK-8), CCRF-CEM.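 Note: cell viability measured with CCK-8 reagent after compound treatment, IC50 taken from plotted growth inhibition curves.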 To be noted: Homo sapiens, 96 h, read-out: IC50 for inhibiting the proliferation of tumor cells, CCRF-CEM.
The subject of the next data set is Daudi cells. The experiment in a line: Tumor cell proliferation IC50 (CCK-8), Daudi.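 Note: cell viability read with CCK-8 reagent after compound exposure of Daudi cells, IC50 derived from plotted growth inhibition curves.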 To be noted: Homo sapiens, read-out: IC50 for inhibiting the proliferation of tumor cells, Daudi.
The next data set concerns Kasumi-1 cells. The experiment in a line: Tumor cell proliferation IC50 (CCK-8), Kasumi-1. The following applies: Homo sapiens, Kasumi 1, 72 h, read-out: IC50 for inhibiting the proliferation of tumor cells, Kasumi-1.

Chain of IKZF3 protein (Q9UKT9 whole entry): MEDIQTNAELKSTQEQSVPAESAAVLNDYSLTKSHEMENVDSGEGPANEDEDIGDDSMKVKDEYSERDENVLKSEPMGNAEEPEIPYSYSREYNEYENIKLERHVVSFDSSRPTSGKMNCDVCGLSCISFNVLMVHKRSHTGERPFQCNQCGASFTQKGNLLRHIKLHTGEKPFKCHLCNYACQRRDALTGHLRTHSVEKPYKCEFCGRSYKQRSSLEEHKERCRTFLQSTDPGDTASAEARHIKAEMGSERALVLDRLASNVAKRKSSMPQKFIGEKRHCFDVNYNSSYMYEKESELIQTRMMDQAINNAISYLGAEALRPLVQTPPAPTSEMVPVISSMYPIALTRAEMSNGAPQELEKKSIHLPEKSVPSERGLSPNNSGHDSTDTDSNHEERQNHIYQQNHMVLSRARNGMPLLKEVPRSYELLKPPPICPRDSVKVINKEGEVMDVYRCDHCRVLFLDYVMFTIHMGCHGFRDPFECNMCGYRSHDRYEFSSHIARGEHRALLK
Chain of IKZF3 protein (Q96SW2 whole entry): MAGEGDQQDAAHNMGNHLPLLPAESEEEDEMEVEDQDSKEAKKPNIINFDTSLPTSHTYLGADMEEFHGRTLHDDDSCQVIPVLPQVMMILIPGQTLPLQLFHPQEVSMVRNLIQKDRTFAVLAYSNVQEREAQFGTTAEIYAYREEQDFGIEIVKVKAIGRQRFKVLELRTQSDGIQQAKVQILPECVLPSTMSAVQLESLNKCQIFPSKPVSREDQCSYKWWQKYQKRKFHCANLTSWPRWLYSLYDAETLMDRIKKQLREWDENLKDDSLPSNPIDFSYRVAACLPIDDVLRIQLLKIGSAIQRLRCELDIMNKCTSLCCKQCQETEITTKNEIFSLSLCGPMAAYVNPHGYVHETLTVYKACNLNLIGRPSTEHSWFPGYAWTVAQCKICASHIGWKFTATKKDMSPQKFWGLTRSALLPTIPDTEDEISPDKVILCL
Chain of IKZF3 protein (Q16531 whole entry partner): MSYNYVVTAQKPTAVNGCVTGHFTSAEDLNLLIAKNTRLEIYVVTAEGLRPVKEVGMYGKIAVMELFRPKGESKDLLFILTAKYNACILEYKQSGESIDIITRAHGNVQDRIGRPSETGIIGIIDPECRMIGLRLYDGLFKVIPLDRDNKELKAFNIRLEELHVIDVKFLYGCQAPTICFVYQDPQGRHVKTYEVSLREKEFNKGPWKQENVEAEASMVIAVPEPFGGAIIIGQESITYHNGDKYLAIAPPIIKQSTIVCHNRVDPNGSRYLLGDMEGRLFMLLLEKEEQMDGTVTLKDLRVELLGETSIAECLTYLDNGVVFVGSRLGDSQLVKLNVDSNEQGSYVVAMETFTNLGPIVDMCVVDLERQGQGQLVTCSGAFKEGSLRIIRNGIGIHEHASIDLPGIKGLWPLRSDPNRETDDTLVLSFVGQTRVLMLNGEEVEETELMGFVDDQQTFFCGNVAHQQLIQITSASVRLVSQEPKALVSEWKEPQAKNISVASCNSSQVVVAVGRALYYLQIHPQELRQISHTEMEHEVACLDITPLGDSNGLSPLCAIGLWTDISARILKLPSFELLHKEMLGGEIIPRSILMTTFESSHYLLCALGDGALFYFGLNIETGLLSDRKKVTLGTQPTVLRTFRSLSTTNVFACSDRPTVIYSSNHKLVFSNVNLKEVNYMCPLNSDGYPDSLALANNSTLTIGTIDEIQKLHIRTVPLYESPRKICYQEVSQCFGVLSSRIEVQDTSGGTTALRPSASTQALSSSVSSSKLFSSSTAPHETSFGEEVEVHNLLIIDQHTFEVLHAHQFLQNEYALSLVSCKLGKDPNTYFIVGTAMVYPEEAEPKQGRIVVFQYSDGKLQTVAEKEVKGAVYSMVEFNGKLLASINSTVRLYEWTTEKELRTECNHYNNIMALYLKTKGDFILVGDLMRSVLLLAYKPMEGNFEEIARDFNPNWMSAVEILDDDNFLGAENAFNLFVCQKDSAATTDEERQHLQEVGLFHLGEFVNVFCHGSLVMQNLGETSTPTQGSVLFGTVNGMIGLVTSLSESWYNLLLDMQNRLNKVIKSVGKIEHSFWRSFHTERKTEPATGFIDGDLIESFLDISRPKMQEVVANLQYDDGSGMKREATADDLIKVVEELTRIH
Chain of human Cereblon WT GST-tagged protein (Q96SW2 whole entry): as the sequence (Q96SW2 whole entry) above
Chain of GSPT1 protein (P15170 whole entry): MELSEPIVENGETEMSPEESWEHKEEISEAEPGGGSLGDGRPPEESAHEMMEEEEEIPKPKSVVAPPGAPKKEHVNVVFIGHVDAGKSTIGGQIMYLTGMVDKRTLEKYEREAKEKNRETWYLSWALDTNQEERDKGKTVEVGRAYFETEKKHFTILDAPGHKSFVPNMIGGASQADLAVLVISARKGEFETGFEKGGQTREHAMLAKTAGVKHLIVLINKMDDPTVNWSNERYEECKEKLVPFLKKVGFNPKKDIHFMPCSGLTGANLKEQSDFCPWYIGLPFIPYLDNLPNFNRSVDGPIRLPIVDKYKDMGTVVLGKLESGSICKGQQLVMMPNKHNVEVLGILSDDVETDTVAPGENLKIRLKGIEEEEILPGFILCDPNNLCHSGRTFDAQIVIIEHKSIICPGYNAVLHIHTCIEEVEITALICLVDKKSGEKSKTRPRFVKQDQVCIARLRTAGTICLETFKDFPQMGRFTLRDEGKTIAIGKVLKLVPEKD
Chain of GSPT1 protein (Q96SW2 whole entry): as the sequence (Q96SW2 whole entry) above
Chain of GSPT1 protein (Q16531 whole entry partner): as the sequence (Q16531 whole entry partner) above
Chain of IKZF1 protein (Q13422 whole entry): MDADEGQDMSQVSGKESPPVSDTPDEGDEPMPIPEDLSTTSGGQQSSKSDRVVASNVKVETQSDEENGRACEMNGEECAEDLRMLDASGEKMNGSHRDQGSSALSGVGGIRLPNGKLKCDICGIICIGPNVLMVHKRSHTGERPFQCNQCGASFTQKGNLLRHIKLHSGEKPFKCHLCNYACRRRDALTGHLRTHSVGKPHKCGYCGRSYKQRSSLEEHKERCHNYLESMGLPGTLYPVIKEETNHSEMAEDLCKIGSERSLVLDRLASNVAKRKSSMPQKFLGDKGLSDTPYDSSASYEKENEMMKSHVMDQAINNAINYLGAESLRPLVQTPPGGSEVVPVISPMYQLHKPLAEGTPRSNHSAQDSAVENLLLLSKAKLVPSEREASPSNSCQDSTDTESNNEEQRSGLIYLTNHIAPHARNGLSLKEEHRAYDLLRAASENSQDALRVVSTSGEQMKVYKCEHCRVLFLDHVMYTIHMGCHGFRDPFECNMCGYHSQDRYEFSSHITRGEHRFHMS
Chain of IKZF1 protein (Q96SW2 whole entry): as the sequence (Q96SW2 whole entry) above
Chain of IKZF1 protein (Q16531 whole entry partner): as the sequence (Q16531 whole entry partner) above
Description for CCRF-CEM cells: (§1) The tumor cells used herein were cultured in a cell culture medium listed in table A at 37° C. in an incubator with 5% CO2.
(§2) After the cells were treated with the compounds of the present disclosure for a period of time, the cell viability detection reagent was added to the culture medium for cell viability assessment according to the instructions provided with the CCK-8 kit. […] The growth inhibition of the compounds of the present disclosure on cells was plotted by Prism Graphpad software, and the IC50 values of the compounds of the present disclosure were calculated therefrom.
Description for Daudi cells: as §1, §2
Description for Kasumi-1 cells: as §1, §2
Description for MV-4-11 cells: as §1, §2

In data set [1] (p.o. 30 mg/kg), `CC1(C)CCC(CN2CCN(Cc3cccc4c3CN(C3CCC(=O)NC3=O)C4=O)CC2)=C(c2ccc(Cl)cc2)C1` (stereo not drawn) [GT-03649, 3-(4-((4-((4′-chloro-5,5-dimethyl-3,4,5,6-tetrahydro-[1,1′-biphenyl]-2-yl)methyl)piperazin-1-yl)methyl)-1-oxoisoindolin-2-yl)piperidine-2,6-dione] gave an AUC(0-t) of more than 500 ng·h/mL.
On to `O=C1CCC(N2Cc3cc(CC4CN(C(=O)c5ccccc5-c5ccc(Cl)cc5)C4)ccc3C2=O)C(=O)N1` (stereo not drawn) [GT-03922, 3-(5-((1-(4′-chloro-[1,1′-biphenyl]-2-carbonyl)azetidin-3-yl)methyl)-1-oxoisoindolin-2-yl)piperidine-2,6-dione], for which the IC50 in data set [2] was 0.16 µM. Besides, the “residual substrate protein level, IKZF1” value on IKZF1 protein is on record as “A (A represents a residual substrate protein level of <50%)”. For the same compound, the “residual substrate protein level, IKZF3” value at IKZF3 protein was “A (A represents a residual substrate protein level of <50%)”. Besides, the “residual substrate protein level, GSPT1” value at GSPT1 protein is listed as “A (A represents a residual substrate protein level of <50%)”. In [1] (p.o. 10 mg/kg), this compound showed an AUC(0-t) not above 500 ng·h/mL.
`O=C1CCC(N2Cc3cc(CN4CCN(Cc5ccccc5-c5ccc(F)cc5)CC4)ccc3C2=O)C(=O)N1` (stereo not drawn) [GT-04256, 3-(5-((4-((4′-fluoro-[1,1′-biphenyl]-2-yl)methyl)piperazin-1-yl)methyl)-1-oxoisoindolin-2-yl)piperidine-2,6-dione] returned an IC50 in [2] of 1.42 µM. In addition, the “residual substrate protein level, IKZF1” value on IKZF1 protein was “A (A represents a residual substrate protein level of <50%)”. The “residual substrate protein level, IKZF3” value at IKZF3 protein is “A (A represents a residual substrate protein level of <50%)”. At GSPT1 protein, the “residual substrate protein level, GSPT1” value is recorded as “A (A represents a residual substrate protein level of <50%)”. In [1] (p.o. 10 mg/kg), this compound registered an AUC(0-t) not above 500 ng·h/mL.
With `CC1(C)CCC(CN2CCN(Cc3ccc4c(c3F)CN(C3CCC(=O)NC3=O)C4=O)CC2)=C(c2ccc(F)cc2)C1` (stereo not drawn) [GT-05390, 3-(4-fluoro-5-((4-((4′-fluoro-5,5-dimethyl-3,4,5,6-tetrahydro-[1,1′-biphenyl]-2-yl)methyl)piperazin-1-yl)methyl)-1-oxoisoindolin-2-yl)piperidine-2,6-dione], the IC50 is 0.5 µM in [2]; 0.01 to 0.05 µM in the data set on Mino cells; 0.01 to 0.05 µM in the data set with MM.1S cells; 0.1 to 0.5 µM in the data set with MV-4-11 cells; 0.05 to 0.1 µM in the data set on CCRF-CEM cells. Besides, the “residual substrate protein level, IKZF1” value on IKZF1 protein was “A (A represents a residual substrate protein level of <50%)”. In addition, at IKZF3 protein, the “residual substrate protein level, IKZF3” value was “A (A represents a residual substrate protein level of <50%)”. The “residual substrate protein level, GSPT1” value on GSPT1 protein is on record as “A (A represents a residual substrate protein level of <50%)”.
`CC1(C)CCC(CN2CC3CCC(C2)N3Cc2cc3c(cc2F)C(=O)N(C2CCC(=O)NC2=O)C3)=C(c2ccc(Cl)cc2)C1` (stereo not drawn) [GT-05494, 3-(5-((3-((4′-chloro-5,5-dimethyl-3,4,5,6-tetrahydro-[1,1′-biphenyl]-2-yl)methyl)-3,8-diazabicyclo[3.2.1]octan-8-yl)methyl)-6-fluoro-1-oxoisoindolin-2-yl)piperidine-2,6-dione]: on IKZF1 protein, the “residual substrate protein level, IKZF1” value is recorded as “A (A represents a residual substrate protein level of <50%)”. Moreover, at IKZF3 protein, the “residual substrate protein level, IKZF3” value is on record as “A (A represents a residual substrate protein level of <50%)”. In addition, on GSPT1 protein, the “residual substrate protein level, GSPT1” value was “A (A represents a residual substrate protein level of <50%)”. Besides, the values for the IC50 in the data set on MM.1S cells, in the data set on MV-4-11 cells and in the data set on CCRF-CEM cells were 0.5 to 1 µM, 0.1 to 0.5 µM and 0.1 to 0.5 µM, respectively.
On to `O=C1CCC(N2C(=O)c3ccc(CN4CCN(Cc5ccccc5-c5ccc(Cl)cc5)CC4)cc3C2=O)C(=O)N1` (stereo not drawn) [GT-05497, 5-((4-((4′-chloro-[1,1′-biphenyl]-2-yl)methyl)piperazin-1-yl)methyl)-2-(2,6-dioxopiperidin-3-yl)isoindoline-1,3-dione], for which the “residual substrate protein level, IKZF1” value on IKZF1 protein was “B (B represents a residual substrate protein level of >50%)”. In addition, the “residual substrate protein level, IKZF3” value at IKZF3 protein is “A (A represents a residual substrate protein level of <50%)”. The “residual substrate protein level, GSPT1” value on GSPT1 protein is listed as “A (A represents a residual substrate protein level of <50%)”. The IC50 was in the range of 0.1 to 0.5 µM in the data set with Mino cells; 0.1 to 0.5 µM with MM.1S cells; 0.5 to 1 µM with Daudi cells; 0.1 to 0.5 µM with MV-4-11 cells; 0.1 to 0.5 µM in the data set on Kasumi-1 cells; 0.05 to 0.1 µM in the data set on CCRF-CEM cells.
Take `O=C1CCC(N2Cc3cc(CN4CCN(Cc5ccccc5-c5ccco5)CC4)ccc3C2=O)C(=O)N1` (stereo not drawn) [GT-05779, 3-(5-((4-(2-(furan-2-yl)benzyl)piperazin-1-yl)methyl)-1-oxoisoindolin-2-yl)piperidine-2,6-dione]: the IC50 was 0.43 µM in data set [2]; 0.005 to 0.01 µM in the data set with Mino cells; 0.005 to 0.01 µM in the data set on MM.1S cells; 0.05 to 0.1 µM with Daudi cells; 0.005 to 0.01 µM in the data set with CCRF-CEM cells. Also, the “residual substrate protein level, IKZF1” value on IKZF1 protein is reported as “A (A represents a residual substrate protein level of <50%)”. Also, at IKZF3 protein, the “residual substrate protein level, IKZF3” value is on record as “A (A represents a residual substrate protein level of <50%)”. At GSPT1 protein, the “residual substrate protein level, GSPT1” value was “A (A represents a residual substrate protein level of <50%)”.
`O=C1CCC(N2Cc3cc(CN4CCN(C(=O)c5ccccc5-c5ccc(Cl)cc5)CC4C(F)(F)F)ccc3C2=O)C(=O)N1` (stereo not drawn) [GT-05789, 3-(5-((4-(4′-chloro-[1,1′-biphenyl]-2-carbonyl)-2-(trifluoromethyl)piperazin-1-yl)methyl)-1-oxoisoindolin-2-yl)piperidine-2,6-dione]: the IC50 was 0.52 µM in [2]; 0.01 to 0.05 µM with Mino cells; 0.01 to 0.05 µM with MM.1S cells; 0.1 to 0.5 µM in the data set on Daudi cells; 0.01 to 0.05 µM in the data set with CCRF-CEM cells. Moreover, at IKZF1 protein, the “residual substrate protein level, IKZF1” value is on record as “B (B represents a residual substrate protein level of >50%)”. On IKZF3 protein, the “residual substrate protein level, IKZF3” value is “B (B represents a residual substrate protein level of >50%)”. Besides, the “residual substrate protein level, GSPT1” value on GSPT1 protein is listed as “A (A represents a residual substrate protein level of <50%)”.
Take `CC1(C)CCC(CN2CCN(Cc3ccc4c(c3)CN(C3CCC(=O)NC3=O)C4=O)CC2)=C(c2cccs2)C1` (stereo not drawn) [GT-05847, 3-(5-((4-((4,4-dimethyl-2-(thiophen-2-yl)cyclohex-1-en-1-yl)methyl)piperazin-1-yl)methyl)-1-oxoisoindolin-2-yl)piperidine-2,6-dione]: the IC50 was 1 µM in data set [2]; less than 0.005 µM in the data set with Mino cells; less than 0.005 µM in the data set on MM.1S cells; 0.01 to 0.05 µM with Daudi cells; less than 0.005 µM with CCRF-CEM cells. The “residual substrate protein level, IKZF1” value on IKZF1 protein is on record as “A (A represents a residual substrate protein level of <50%)”. Further, the “residual substrate protein level, IKZF3” value at IKZF3 protein is listed as “A (A represents a residual substrate protein level of <50%)”. Also, the “residual substrate protein level, GSPT1” value at GSPT1 protein is reported as “A (A represents a residual substrate protein level of <50%)”.
`O=C1CCC(N2Cc3cc(CN4CCN(Cc5ccccc5-c5ccc(Cl)cn5)CC4)ccc3C2=O)C(=O)N1` (stereo not drawn) [GT-05860, 3-(5-((4-(2-(5-chloropyridin-2-yl)benzyl)piperazin-1-yl)methyl)-1-oxoisoindolin-2-yl)piperidine-2,6-dione]: the IC50 in [2] was 0.56 µM; in the data set with Mino cells, 0.005 to 0.01 µM; in the data set with MM.1S cells, less than 0.005 µM; in the data set on Daudi cells it was 0.01 to 0.05 µM; in the data set with CCRF-CEM cells, 0.005 to 0.01 µM. In addition, the “residual substrate protein level, IKZF1” value on IKZF1 protein was “A (A represents a residual substrate protein level of <50%)”. In addition, the “residual substrate protein level, IKZF3” value on IKZF3 protein is “A (A represents a residual substrate protein level of <50%)”. Besides, the “residual substrate protein level, GSPT1” value on GSPT1 protein is on record as “A (A represents a residual substrate protein level of <50%)”.

One may read the AUC(0-t) as the area under the concentration-time curve up to a stated or last time point. High values mean high exposure, low ones low exposure.
